From patent US20190233409A1, “SUBSTITUTED 2,3,4,5-TETRAHYDRO-1H-PYRIDO[4,3-B]INDOLES, METHODS FOR USE THEREOF” (priority 2017, published 2019)
Where a name gives a salt, the structure may show the parent alone.

Columns and labels:
[1] = tested on: calcium canals regulated by the intracellular calcium depot; assay: Histamine-induced calcium stream in SK-N-SH cells, Phase 2 (lowering of intracellular calcium concentration); type: cell-based; conditions: Homo sapiens, 10 μM histamine, Fura 2 AM, Phase 2: discharge of intraplasmatic calcium
[2] = tested on: BALB/c male mice; assay: Passive Avoidance of Mice in a Shuttle Chamber, memory disturbed by scopolamine (Example 7); type: in vivo; conditions: scopolamine 0.3 mg/kg, injected 30 minutes before training
Experimental: Example 7. […] A shuttle chamber (Ugo Basile, Italy) consisted of two sections was used. […] The sections were connected via a hole which could be shut with a vertical door. The floor was made of transverse metal bars on which DC current impulses could be fed. Experiments were carried out on aged male mice of line BALB/c weighing 20-24 grams. […] Each group consisted of at least 8 animals. The animals were placed in the light section, and the latent period of the first entry into the dark chamber was registered. Then the vertical door was closed and the animal was punished by 0.6 mA DC current for 3 seconds. After that the animal was carried back to its living cell. In 22-24 hours the same animal was placed in the light section of the shuttle chamber once again and the latent period before its entry into the dark section, the total time of its stay in the light section and the number of entries into the dark section were registered. Each observation lasted for 5 minutes. The experiment was carried out during the day time in an isolated laboratory using white noise at a level of about 70 decibel above the human hearing threshold. Scopolamine causes the disturbance of training (memory loss) which results in […]. The fact that 5-HT6 receptor antagonists can improve the learning ability that has been disturbed by scopolamine is regarded as evidence for their nootropic effect.

[3] = tested on: BALB/c male mice; assay: Passive Avoidance of Mice in a Shuttle Chamber, scopolamine or MK-801 (Example 8); type: in vivo; conditions: scopolamine 0.3 mg/kg or MK-801 0.1 mg/kg
Experimental: Example 7. […] A shuttle chamber (Ugo Basile, Italy) consisted of two sections was used. […] The sections were connected via a hole which could be shut with a vertical door. The floor was made of transverse metal bars on which DC current impulses could be fed. Experiments were carried out on aged male mice of line BALB/c weighing 20-24 grams.
On the first day of the experiment 30 minutes before training the mice were injected intraintestinally with physiological solution of scopolamine (0.3 mg/kg) or scopolamine in combination with antagonists of 5-HT6 receptors 1.2.1(2)HCl, 1.2.1(4)HCl or 1.2.1(5)HCl. Each group consisted of at least 8 animals. The animals were placed in the light section, and the latent period of the first entry into the dark chamber was registered. Then the vertical door was closed and the animal was punished by 0.6 mA DC current for 3 seconds. After that the animal was carried back to its living cell. In 22-24 hours the same animal was placed in the light section of the shuttle chamber once again and the latent period before its entry into the dark section, the total time of its stay in the light section and the number of entries into the dark section were registered. Each observation lasted for 5 minutes.
The experiment was carried out in the same way as in example 7. On the first day 30 minutes before training the mice were injected intra-intestinally with a physiological solution of scopolamine (0.3 mg/kg) or MK-801(0.1 mg/kg).

[4] = tested on: SHK male mice; assay: Recognition of New Objects by Mice Under Scopolamine and MK-801; type: in vivo; conditions: scopolamine 1 mg/kg and MK-801 0.2 mg/kg
Experimental: The experiments were carried out in a closed cross shaped labyrinth which consisted of 4 peripheral sections connected with the central chamber via a 7×7 cm hole. The labyrinth was made of black plastic and its sections were of 14×14×14 cm size. The top cover of the labyrinth was transparent.
A mouse was placed in the central section of the labyrinth and allowed to investigate the environment. A mouse was considered to have entered a section once all of its four paws were inside the chamber. A test was considered to be completed when the mouse had moved 12 times between the sections, having made a total of 13 visits. The floor of the labyrinth was cleaned after each animal.
With each mouse the test was carried out twice with 1 hour interval.
During the first test, each section of the labyrinth contained a circular plastic cup of 3 cm height and 7 cm diameter. During the second test the cover in each of the two opposing sections was replaced by a conical glass bulb of 7 cm height and 4 cm across the bottom. The time that the mice spent in each section of the labyrinth was registered and the index of new object recognition was calculated as the ratio of the time spent in the sections with the bulbs to the time spent in all sections of the labyrinth. If no preference is given to the sections with new objects the index is 0.5.
When new objects appear the mice spend more time in the section containing them that results in an increased recognition index. Scopolamine (1 mg/kg) and MK-801 (0.2 mg/kg) disturbed learning (memory) that leads to lowering of the recognition index.

Compound | EC50 [1] [µM] | further results
CN1CCc2c(c3ccccc3n2/C=C\c2cccnc2)C1 [1.1(4), cis-2-methyl-5-[2-(pyridin-3-yl)ethenyl]-2,3,4,5-tetrahydro-1H-pyrido[4,3-b]indole] | > 10 | –
CN1CCc2c(c3cc(F)ccc3n2/C=C\c2cccnc2)C1 [1.1.1(2), cis-2-methyl-5-[2-(pyridin-3-yl)ethenyl]-8-fluoro-2,3,4,5-tetrahydro-1H-pyrido[4,3-b]indole] | > 10 | –
CN1CCc2c(c3ccccc3n2CCc2ccncc2)C1 [1.2(2)HCl, 2-methyl-5-[2-(pyridin-4-yl)ethyl]-2,3,4,5-tetrahydro-1H-pyrido[4,3-b]indole hydrochloride] | 0.5 | –
Cc1ccc2c(c1)c1c(n2CCc2ccncc2)CCN(C)C1.Cl [1.2.1(2)HCl, 2,8-dimethyl-5-[2-(pyridin-4-yl)ethyl]-2,3,4,5-tetrahydro-1H-pyrido[4,3-b]indole hydrochloride] | 3.98 | nootropic action (passive avoidance, FIGS. 2-4) [2]: exhibit a nootropic action which is the most prominent
CN1CCc2c(c3cc(F)ccc3n2CCc2ccncc2)C1 [1.2.1(8)HCl, 2-methyl-5-[2-(pyridin-4-yl)ethyl]-8-fluoro-2,3,4,5-tetrahydro-1H-pyrido[4,3-b]indole hydrochloride] | 0.47 | –
CN1CCc2c(c3cc(F)ccc3n2CCc2cccnc2)C1 [1.2.1(9)HCl, 2-methyl-5-[2-(pyridin-3-yl)ethyl]-8-fluoro-2,3,4,5-tetrahydro-1H-pyrido[4,3-b]indole hydrochloride] | 0.297 | –
CN1CCc2c(c3cc(F)ccc3n2CCc2ccccn2)C1 [1.2.1(10)HCl, 2-methyl-5-[2-(pyridin-2-yl)ethyl]-8-fluoro-2,3,4,5-tetrahydro-1H-pyrido[4,3-b]indole hydrochloride] | 0.61 | –
Cc1ccc(CCn2c3c(c4cc(F)ccc42)CN(C)CC3)cn1 [1.2.1(11)HCl, 2-methyl-5-[2-(6-methylpyridin-3-yl)ethyl]-8-fluoro-2,3,4,5-tetrahydro-1H-pyrido[4,3-b]indole hydrochloride] | 0.73 | –
CN1CCc2c(c3cccc(F)c3n2CCc2ccccc2)C1 [1.2.2(1)HCl] | 0.25 | –
CN1CCc2c(c3ccccc3n2C#Cc2ccccc2)C1 [1.3(1), 2-methyl-5-phenylethynyl-2,3,4,5-tetrahydro-1H-pyrido[4,3-b]indole] | 10.1 | –
CN1CCc2c(c3cc(F)ccc3n2C#Cc2cccnc2)C1 [1.3.1(3), 2-methyl-5-(pyridin-3-ylethynyl)-8-fluoro-2,3,4,5-tetrahydro-1H-pyrido[4,3-b]indole] | > 10 | –
Cc1ccc2c(c1)c1c(n2C#Cc2ccccc2)CCN(C)C1 [1.3.1(5), 2,8-dimethyl-5-phenylethynyl-2,3,4,5-tetrahydro-1H-pyrido[4,3-b]indole] | > 10 | –
Cc1ccc2c(c1)c1c(n2C#Cc2cccnc2)CCN(C)C1 [1.3.1(7), 2,8-dimethyl-5-(pyridin-3-ylethynyl)-2,3,4,5-tetrahydro-1H-pyrido[4,3-b]indole] | > 10 | –
O=S(=O)(c1ccccc1)c1cnc2c(N3CCNCC3)cccc2c1 [SB-742457] | – | nootropic action (passive avoidance, FIGS. 5-10) [3]: inactive; nootropic action (new object recognition, FIG. 13-14) [4]: nootropic action
CC12CC3CC(C)(C1)CC(N)(C3)C2 [memantine] | – | nootropic action (new object recognition, FIG. 13-14) [4]: nootropic action

Continued, in another order:

EC50 [1] [µM] | Compound | further results
0.18 | CN1CCc2c(c3ccccc3n2/C=C\c2ccccc2)C1 [1.1(1), cis-2-methyl-5-(2-phenylethenyl)-2,3,4,5-tetrahydro-1H-pyrido[4,3-b]indole] | –
2.13 | CN1CCc2c(c3ccccc3n2/C=C/c2ccccc2)C1 [1.1(2), trans-2-methyl-5-(2-phenylethenyl)-2,3,4,5-tetrahydro-1H-pyrido[4,3-b]indole] | –
> 10 | CN1CCc2c(c3ccccc3n2/C=C/c2ccncc2)C1 [1.1(3), trans-2-methyl-5-[2-(pyridin-4-yl)ethenyl]-2,3,4,5-tetrahydro-1H-pyrido[4,3-b]indole] | –
> 10 | CN1CCc2c(c3ccccc3n2/C=C/c2ccccn2)C1 [1.1(5), trans-2-methyl-5-[2-(pyridin-2-yl)ethenyl]-2,3,4,5-tetrahydro-1H-pyrido[4,3-b]indole] | –
0.15 | CN1CCc2c(c3cc(F)ccc3n2/C=C\c2ccccc2)C1 [1.1.1(1), cis-2-methyl-5-(2-phenylethenyl)-8-fluoro-2,3,4,5-tetrahydro-1H-pyrido[4,3-b]indole] | –
0.154 | Cc1ccc2c(c1)c1c(n2/C=C\c2ccccc2)CCN(C)C1 [1.1.1(3), cis-2,8-dimethyl-5-(2-phenylethenyl)-2,3,4,5-tetrahydro-1H-pyrido[4,3-b]indole] | –
0.19 | CN1CCc2c(c3cc(F)ccc3n2/C=C\c2cccc(F)c2)C1 [1.1.1(6), cis-2-methyl-5-[2-(3-fluorophenyl)ethenyl]-8-fluoro-2,3,4,5-tetrahydro-1H-pyrido[4,3-b]indole] | –
0.412 | CN1CCc2c(c3ccccc3n2CCc2cccnc2)C1 [1.2(3)HCl, 2-methyl-5-[2-(pyridin-3-yl)ethyl]-2,3,4,5-tetrahydro-1H-pyrido[4,3-b]indole hydrochloride] | –
0.93 | CN1CCc2c(c3ccccc3n2CCc2ccccn2)C1 [1.2(4)HCl, 2-methyl-5-[2-(pyridin-2-yl)ethyl]-2,3,4,5-tetrahydro-1H-pyrido[4,3-b]indole hydrochloride] | –
0.579 | Cc1ccc2c(c1)c1c(n2CCc2cccnc2)CCN(C)C1 [1.2.1(3)HCl, 2,8-dimethyl-5-[2-(pyridin-3-yl)ethyl]-2,3,4,5-tetrahydro-1H-pyrido[4,3-b]indole hydrochloride] | –
10 | Cc1ccc2c(c1)c1c(n2CCc2ccccn2)CCN(C)C1.Cl [1.2.1(4)HCl, 2,8-dimethyl-5-[2-(pyridin-2-yl)ethyl]-2,3,4,5-tetrahydro-1H-pyrido[4,3-b]indole hydrochloride] | nootropic action (passive avoidance, FIGS. 2-4) [2]: exhibit a nootropic action which is the most prominent
7.94 | Cc1ccc2c(c1)c1c(n2CCc2cnccn2)CCN(C)C1 [1.2.1(6), 2,8-dimethyl-5-[2-(pyrazin-2-yl)ethyl]-2,3,4,5-tetrahydro-1H-pyrido[4,3-b]indole] | –
0.13 | CN1CCc2c(c3cc(F)ccc3n2CCc2ccccc2)C1 [1.2.1(7)HCl, 2-methyl-5-(2-phenylethyl)-8 fluoro-2,3,4,5-tetrahydro-1H-pyrido[4,3-b]indole hydrochloride] | –
> 10 | CN1CCc2c(c3ccccc3n2C#Cc2cccnc2)C1 [1.3(3), 2-methyl-5-(pyridin-3-ylethynyl)-2,3,4,5-tetrahydro-1H-pyrido[4,3-b]indole] | –
